Measurements published in ChEMBL document CHEMBL4699511, “Cedrol, a Sesquiterpene Alcohol, Enhances the Anticancer Efficacy of Temozolomide in Attenuating Drug Resistance via Regulation of the DNA Damage Response and MGMT Expression” (J Nat Prod, 2020).
The source made the active and inactive calls. No cut-off for these calls is given here.

How the values were obtained:
DBTRG-05MG [1] = assay: Induction of cell cycle arrest in human DBTRG-05MG cells assessed as accumulation at S phase at 206 uM after 48 hrs by propidium iodide staining based flow cytometric analysis (reference value: 22.76 +/- 1.56%); assay type: functional
RG2 [2] = assay: Induction of apoptosis in rat RG2 cells assessed as Bax expression at 206 uM after 48 hrs by Western blot analysis (reference value: 1); assay type: functional
DBTRG-05MG [3] = assay: Induction of cell cycle arrest in human DBTRG-05MG cells assessed as CyclinD1 expression at 206 uM after 48 hrs by Western blot analysis (reference value: 1); assay type: functional
RG2 [4] = assay: Induction of cell cycle arrest in rat RG2 cells assessed as CyclinB1 expression at 206 uM after 48 hrs by Western blot analysis (reference value: 1); assay type: functional
RG2 [5] = assay: Induction of apoptosis in rat RG2 cells assessed as Bcl2 expression at 206 uM after 48 hrs by Western blot analysis (reference value: 1); assay type: functional
[6] = Effect on ERK expression in rat RG2 cells at 206 uM after 48 hrs by Western blot analysis (reference value: 1); assay type: functional
RG2 [7] = assay: Induction of cell cycle arrest in rat RG2 cells assessed as accumulation at G2/M phase at 206 uM after 6 hrs by propidium iodide staining based flow cytometric analysis (reference value: 20.04 +/- 0.55%); assay type: functional
RG2 [8] = assay: Synergistic cytotoxicity against rat RG2 cells assessed as combination index at 112.4 uM after 48 hrs in presence of 412.1 uM TMZ by MTT assay; assay type: functional
[9] = Synergistic cytotoxicity against rat CTX TNA2 cells assessed as synergistic effect index at 89.9 uM after 48 hrs in presence of 515.1 uM TMZ by MTT assay; assay type: cell-based; details: ctx tna2, 48 h
[10] = Effect of MDR1 expression in rat RG2 cells at 112.4 uM after 48 hrs by Western blot analysis; assay type: functional
DBTRG-05MG [11] = assay: Induction of DNA damage in human DBTRG-05MG cells assessed as Chk2 phosphorylation at Thr68 residues at 112.4 uM after 48 hrs in presence of TMZ by Western blot analysis (reference value: 1); assay type: functional
RG2 [12] = assay: Induction of cell cycle arrest in rat RG2 cells assessed as accumulation at S phase at 112.4 uM after 24 hrs by propidium iodide staining based flow cytometric analysis (reference value: 20.15 +/- 2.44%); assay type: functional
DBTRG-05MG [13] = assay: Induction of cell cycle arrest in human DBTRG-05MG cells assessed as accumulation at G0/G1 phase at 112.4 uM after 48 hrs by propidium iodide staining based flow cytometric analysis (reference value: 47.16 +/- 1.55%); assay type: functional
DBTRG-05MG [14] = assay: Induction of apoptosis in human DBTRG-05MG cells assessed as cleaved caspace-9 expression at 112.4 uM after 48 hrs in presence of TMZ by Western blot analysis (reference value: 1); assay type: functional
RG2 [15] = assay: Induction of cell cycle arrest in rat RG2 cells assessed as p21 expression at 112.4 uM after 48 hrs by Western blot analysis (reference value: 1); assay type: functional
DBTRG-05MG [16] = assay: Synergistic cytotoxicity against human DBTRG-05MG cells assessed as combination index at 134.9 uM after 48 hrs in presence of 103 uM TMZ by MTT assay; assay type: functional
DBTRG-05MG [17] = assay: Induction of cell cycle arrest in human DBTRG-05MG cells assessed as accumulation at G2/M phase at 112.4 uM after 12 hrs by propidium iodide staining based flow cytometric analysis (reference value: 30.08 +/- 0.1%); assay type: functional
DBTRG-05MG [18] = assay: Induction of apoptosis in human DBTRG-05MG cells assessed as phosphorylated PARP expression at 112.4 uM after 48 hrs in presence of TMZ by Western blot analysis (reference value: 1); assay type: functional
[19] = Effect on ERK expression in human DBTRG-05MG cells at 112.4uM after 48 hrs by Western blot analysis (reference value: 1); assay type: functional
RG2 [20] = assay: Induction of DNA damage in rat RG2 cells assessed as ATM phosphorylation at ser1981 residues at 112.4 uM after 48 hrs in presence of TMZ by Western blot analysis (reference value: 1); assay type: functional
RG2 [21] = assay: Induction of apoptosis in rat RG2 cells assessed as phosphorylated PARP expression at 112.4 uM after 48 hrs in presence of TMZ by Western blot analysis (reference value: 1); assay type: functional
[22] = Synergistic cytotoxicity against rat CTX TNA2 cells assessed as combination index at 89.9 uM after 48 hrs in presence of 103 uM TMZ by MTT assay; assay type: cell-based; details: ctx tna2, 48 h
RG2 [23] = assay: Induction of apoptosis in rat RG2 cells assessed as phosphorylated caspace-3 expression at 112.4 uM after 48 hrs in presence of TMZ by Western blot analysis (reference value: 1); assay type: functional
DBTRG-05MG [24] = assay: Synergistic cytotoxicity against human DBTRG-05MG cells assessed as combination index at 134.9 uM after 48 hrs in presence of 206 uM TMZ by MTT assay; assay type: functional
RG2 [25] = assay: Synergistic cytotoxicity against rat RG2 cells assessed as synergistic effect index at 89.9 uM after 48 hrs in presence of 206 uM TMZ by MTT assay; assay type: functional
RG2 [26] = assay: Inhibition of TMZ-induced drug resistance in rat RG2 cells assessed as reduction in MGMT protein expression at 112.4 uM after 48 hrs by Immunohistochemistry method; assay type: functional, cell-based
DBTRG-05MG [27] = assay: Synergistic cytotoxicity against human DBTRG-05MG cells assessed as combination index at 134.9 uM after 48 hrs in presence of 412.1 uM TMZ by MTT assay; assay type: functional
DBTRG-05MG [28] = assay: Induction of cell cycle arrest in human DBTRG-05MG cells assessed as CDK4 expression at 112.4 uM after 48 hrs by Western blot analysis (reference value: 1); assay type: functional
RG2 [29] = assay: Induction of cell cycle arrest in rat RG2 cells assessed as CyclinD1 expression at 112.4 uM after 48 hrs in presence of TMZ by Western blot analysis (reference value: 1); assay type: functional
RG2 [30] = assay: Induction of cell cycle arrest in rat RG2 cells assessed as accumulation at S phase at 112.4 uM after 6 hrs in presence of TMZ by propidium iodide staining based flow cytometric analysis (reference value: 20.15 +/- 2.44%); assay type: functional
RG2 [31] = assay: Induction of DNA damage in rat RG2 cells assessed as Chk1 phosphorylation at ser345 at 112.4 uM after 48 hrs in presence of TMZ by Western blot analysis (reference value: 1); assay type: functional
RG2 [32] = assay: Synergistic cytotoxicity against rat RG2 cells assessed as combination index at 112.4 uM after 48 hrs in presence of 103 uM TMZ by MTT assay; assay type: functional
DBTRG-05MG [33] = assay: Synergistic cytotoxicity against human DBTRG-05MG cells assessed as combination index at 134.9 uM after 48 hrs in presence of 309 uM TMZ by MTT assay; assay type: functional
DBTRG-05MG [34] = assay: Induction of cell cycle arrest in human DBTRG-05MG cells assessed as accumulation at G2/M phase at 112.4 uM after 12 hrs in presence of TMZ by propidium iodide staining based flow cytometric analysis (reference value: 30.08 +/- 0.1%); assay type: functional

## Cn1nnc2c(C(N)=O)ncn2c1=O [TEMOZOLOMIDE]
DBTRG-05MG [1]
  Activity: 23.42%
RG2 [2]
  fold change (FC): 1.1
DBTRG-05MG [3]
  fold change (FC): 0.5
RG2 [4]
  fold change (FC): 1.8
RG2 [5]
  fold change (FC): 1.3
[6]
  fold change (FC): 1.1
RG2 [7]
  Activity: 20.81%

## C[C@@H]1CC[C@H]2C(C)(C)[C@H]3C[C@@]12CC[C@@]3(C)O [CEDROL]
RG2 [8]
  CI: 0.99
[9]
  Activity_index: 0.68
[10]
  fold change (FC): 2.1
DBTRG-05MG [11]
  fold change (FC): 2.6
RG2 [12]
  Activity: 9.09%
DBTRG-05MG [13]
  Activity: 53.13%
DBTRG-05MG [14]
  fold change (FC): 3.4
RG2 [15]
  fold change (FC): 1.6
DBTRG-05MG [16]
  CI: 0.64
DBTRG-05MG [17]
  Activity: 31.03%
DBTRG-05MG [18]
  fold change (FC): 0.4
[19]
  fold change (FC): 1
RG2 [20]
  fold change (FC): 1
RG2 [21]
  fold change (FC): 0.5
[22]
  CI: 1.24
RG2 [23]
  fold change (FC): 1.2
DBTRG-05MG [24]
  CI: 0.59
RG2 [25]
  Activity_index: 0.69
RG2 [26]
  inhibition: Active
DBTRG-05MG [27]
  CI: 0.6
DBTRG-05MG [28]
  fold change (FC): 1
RG2 [29]
  fold change (FC): 0.8
RG2 [30]
  Activity: 19.02%
RG2 [31]
  fold change (FC): 3.5
RG2 [32]
  CI: 0.8
DBTRG-05MG [33]
  CI: 0.61
DBTRG-05MG [34]
  Activity: 33.68%
